For 4 molecules, MIC and Zone of inhibition results are on record in ChEMBL document CHEMBL1122817, “Synthesis and biological activity of substituted [[3(S)-(acylamino)-2-oxo-1-azetidinyl]oxy]acetic acids. A new class of heteroatom-activated beta-lactam antibiotics” (1985).

The structures appear in SMILES notation. Where only a bound is given, the exact number is not on record here.

Assay [1] deals with Salmonella typhi. As to the kind of experiment: Minimum inhibitory concentration against Salmonella typhi 1335. To be noted: Salmonella enterica. The assay is classed as functional, Salmonella enterica subsp. enterica serovar Typhi.
Assay [2] has as its system Morganella morganii. The assay can be described thus: Minimum inhibitory concentration against Proteus morganii PR15. The assay is classed as functional.
The test system of assay [3] is Staphylococcus epidermidis. The assay can be described thus: Minimum inhibitory concentration against Staphylococcus epidermidis (2 strains). The assay is classed as functional.
In assay [4] the test system is Proteus inconstans. The assay can be described thus: Minimum inhibitory concentration against Proteus inconstans PR33. The class given is functional. As to conditions: Providencia alcalifaciens.
For assay [5], the system named is Providencia rettgeri. As to the kind of experiment: Minimum inhibitory concentration against Proteus rettgeri C24. The assay is classed as functional.
Assay [6] deals with Escherichia coli. As to the kind of experiment: Inhibitory activity against Escherichia coli X161M at 10 mg/mL concentration using Agar disk plate assay. The assay is classed as functional.
Assay [7] concerns Bacillus subtilis. As to the kind of experiment: Inhibitory activity against Bacillus Subtilis X12M at 10 mg/mL concentration using Agar disk plate assay. The class given is functional.
The subject of assay [8] is Escherichia coli. The assay can be described thus: Inhibitory activity against Escherichia coli X161 at 10 mg/mL concentration using Agar disk plate assay. The class given is functional.
In assay [9] the test system is Streptococcus pyogenes. As to the kind of experiment: Minimum inhibitory concentration against Streptococcus pyogenes C203. The assay is classed as functional.
The subject of assay [10] is Citrobacter freundii. The assay can be described thus: Minimum inhibitory concentration against Citrobacter freundii CF17. The assay is classed as functional.
For assay [11], the system named is Staphylococcus aureus. As to the kind of experiment: Minimum inhibitory concentration against Staphylococcus aureus (4 strains). The assay is classed as functional.
Assay [12] has as its system Escherichia coli. The assay can be described thus: Inhibitory activity against Escherichia coli X580 at 10 mg/mL concentration using Agar disk plate assay. The assay is classed as functional.
Assay [13] concerns Micrococcus luteus. As to the kind of experiment: Inhibitory activity against Sarcina lutea X186 at 10 mg/mL concentration using Agar disk plate assay. The assay is classed as functional.
For assay [14], the system named is Streptococcus pneumoniae. The assay can be described thus: Minimum inhibitory concentration against Streptococcus pneumoniae Park I. The assay is classed as functional.
Assay [15] concerns Klebsiella pneumoniae. As to the kind of experiment: Minimum inhibitory concentration against Klebsiella pneumoniae KAE. The class given is functional.
Assay [16] relates to Serratia marcescens. The assay can be described thus: Inhibitory activity against Serratia marcescens X99 at 10 mg/mL concentration using Agar disk plate assay. The assay is classed as functional.
Assay [17] deals with Pseudomonas aeruginosa. As to the kind of experiment: Minimum inhibitory concentration against Pseudomonas aeruginosa (4 strains). The class given is functional.
Assay [18] relates to Serratia marcescens. As to the kind of experiment: Minimum inhibitory concentration against Serratia marcescens SE3. The class given is functional.
Assay [19] concerns Escherichia coli. As to the kind of experiment: Minimum inhibitory concentration against Escherichia coli TEM. The assay is classed as functional.
Assay [20] has as its system Klebsiella aerogenes. As to the kind of experiment: Minimum inhibitory concentration against Enterobacter aerogenes EB 17. The assay is classed as functional.
In assay [21] the test system is Staphylococcus aureus. As to the kind of experiment: Inhibitory activity against Staphylococcus aureus X1 at 10 mg/mL concentration using Agar disk plate assay. The assay is classed as functional.
Assay [22] has as its system Salmonella enterica subsp. enterica serovar Gallinarum. The assay can be described thus: Inhibitory activity against Salmonella gallinarum X142 at 10 mg/mL concentration using Agar disk plate assay. The class given is functional.
For assay [23], the system named is Haemophilus influenzae. As to the kind of experiment: Minimum inhibitory concentration against Haemophilus influenza C.L. The class given is functional.
Assay [24] relates to Proteus vulgaris. The assay can be described thus: Inhibitory activity against Proteus vulgaris X45 at 10 mg/mL concentration using Agar disk plate assay. The assay is classed as functional.
In assay [25] the test system is Geobacillus stearothermophilus. The assay can be described thus: Inhibitory activity against Bacillus Stearothermophilus C451 at 10 mg/mL concentration using Agar disk plate assay. The class given is functional.
Assay [26] deals with Ralstonia solanacearum. The assay can be described thus: Inhibitory activity against Pseudomonas solanacearum X185 at 10 mg/mL concentration using Agar disk plate assay. The assay is classed as functional.
Assay [27] has as its system Klebsiella aerogenes. As to the kind of experiment: Minimum inhibitory concentration against Enterobacter aerogenes C32. The class given is functional.
In assay [28] the test system is Escherichia coli. The assay can be described thus: Minimum inhibitory concentration against Escherichia coli EC14. The class given is functional.
For assay [29], the system named is Klebsiella pneumoniae. As to the kind of experiment: Minimum inhibitory concentration against Klebsiella pneumoniae X26. The class given is functional.
In assay [30] the test system is Acinetobacter calcoaceticus. As to the kind of experiment: Minimum inhibitory concentration against Acinetobacter calcoaceticus AC12. The class given is functional.
Assay [31] has as its system Escherichia coli. As to the kind of experiment: Minimum inhibitory concentration against Escherichia coli N10. The assay is classed as functional.
In assay [32] the test system is Bacillus subtilis. As to the kind of experiment: Inhibitory activity against Bacillus Subtilis X12 at 10 mg/mL concentration using Agar disk plate assay. The assay is classed as functional.
The subject of assay [33] is Klebsiella pneumoniae. The assay can be described thus: Minimum inhibitory concentration against Klebsiella pneumoniae X68. The assay is classed as functional.
For assay [34], the system named is Enterobacter cloacae. The assay can be described thus: Minimum inhibitory concentration against Enterobacter cloacae EB5. The assay is classed as functional.
Assay [35] concerns Streptococcus. As to the kind of experiment: Minimum inhibitory concentration against Streptococcus sp. Group D (2 strains). The class given is functional.
Assay [36] deals with Pseudomonas aeruginosa. As to the kind of experiment: Inhibitory activity against Pseudomonas aeruginosa X48 at 10 mg/mL concentration using Agar disk plate assay. The assay is classed as functional.
Assay [37] concerns Serratia marcescens. As to the kind of experiment: Minimum inhibitory concentration against Serratia marcescens X99. The assay is classed as functional.
Assay [38] concerns Enterobacter cloacae. As to the kind of experiment: Minimum inhibitory concentration against Enterobacter cloacae 265A. The class given is functional.
Assay [39] has as its system Salmonella typhi. The assay can be described thus: Minimum inhibitory concentration against Salmonella typhi X514. The class given is functional, Salmonella enterica subsp. enterica serovar Typhi. As to conditions: Salmonella enterica.
Assay [40] has as its system Haemophilus influenzae. The assay can be described thus: Minimum inhibitory concentration against Haemophilus influenza 76. The class given is functional.

For the molecule `CO/N=C(\C(=O)N[C@@H]1C(=O)N(OCC(=O)[O-])[C@H]1C)c1csc(N)n1.[K+]`, the MIC in [1] was 0.25 µg/mL; in [2] it was 2 µg/mL; in assay [3], more than 64 µg/mL; in [4] it was 0.125 µg/mL; in [5] it was 0.125 µg/mL; in assay [9], 16 µg/mL. For the same molecule, the MIC was 2 µg/mL in assay [10]; more than 64 µg/mL in assay [11]; 32 µg/mL in assay [14]; 32 µg/mL in assay [15]; more than 64 µg/mL in assay [17]; 1 µg/mL in [18]. In addition, the MIC in assay [19] was 0.5 µg/mL; in assay [20], 0.25 µg/mL; in [23] it was 1 µg/mL; in assay [27], 0.25 µg/mL; in [28], 0.25 µg/mL; in assay [29], 0.25 µg/mL. Further, the MIC in assay [30] was more than 64 µg/mL; in assay [31], 0.25 µg/mL; in [33], 0.25 µg/mL; in [34], 1 µg/mL; in assay [35] it was more than 64 µg/mL; in assay [37], 0.5 µg/mL. Besides, the MIC in [38] was more than 64 µg/mL; in assay [39], 0.125 µg/mL; in assay [40] it was 1 µg/mL. Also, the Zone of inhibition turned out to be 44 mm in assay [6]; 19 mm in assay [7]; 35 mm in assay [8]; 56 mm in assay [12]; 22 mm in [13]; 33 mm in assay [16]. Also, the Zone of inhibition in assay [21] is 19 mm; in assay [22], 30 mm; in assay [24], 36 mm; in [25] it was 24 mm; in [26], 20 mm; in assay [32], 13 mm. Moreover, the Zone of inhibition in assay [36] was determined as 15 mm.

On to `C[C@H]1[C@H](NC(=O)Cc2csc(N)n2)C(=O)N1OCC(=O)[O-].[K+]`, for which the Zone of inhibition was determined as 25 mm in assay [6]; 21 mm in [7]; 24 mm in assay [8]; 36 mm in assay [12]; 15 mm in [13]; 23 mm in assay [16]. In addition, the Zone of inhibition in assay [21] is 18 mm; in assay [22], 22 mm; in assay [24], 19 mm; in [32], 12 mm.

With `O=C(O)CON1C[C@H](NC(=O)Cc2ccccc2)C1=O`, the Zone of inhibition in assay [7] was found to be 20 mm; in assay [12] it was 11 mm; in assay [13] it was 23 mm; in [21] it was 23 mm; in [24] it was 10 mm; in [32], 16 mm.

Consider `C[C@H]1[C@H](NC(=O)Cc2ccccc2)C(=O)N1OCC(=O)O`, for which the Zone of inhibition in assay [7] worked out at 18 mm; in assay [12] it was 26 mm; in assay [13], 23 mm; in [21] it was 13 mm; in assay [24], 10 mm; in [32] it was 11 mm.
